The text below walks through data of patent publication US11174242B2, “Heteroaryl compounds and their use” (Minoryx Therapeutics S.L., priority 2016, dated 2021).

In test [1] the target is T1, β-glucocerebrosidase Wild Type (WT) (Homo sapiens, UniProt P04062).
T1 construct: endogenous in cells
T1 sequence (P04062 40-536): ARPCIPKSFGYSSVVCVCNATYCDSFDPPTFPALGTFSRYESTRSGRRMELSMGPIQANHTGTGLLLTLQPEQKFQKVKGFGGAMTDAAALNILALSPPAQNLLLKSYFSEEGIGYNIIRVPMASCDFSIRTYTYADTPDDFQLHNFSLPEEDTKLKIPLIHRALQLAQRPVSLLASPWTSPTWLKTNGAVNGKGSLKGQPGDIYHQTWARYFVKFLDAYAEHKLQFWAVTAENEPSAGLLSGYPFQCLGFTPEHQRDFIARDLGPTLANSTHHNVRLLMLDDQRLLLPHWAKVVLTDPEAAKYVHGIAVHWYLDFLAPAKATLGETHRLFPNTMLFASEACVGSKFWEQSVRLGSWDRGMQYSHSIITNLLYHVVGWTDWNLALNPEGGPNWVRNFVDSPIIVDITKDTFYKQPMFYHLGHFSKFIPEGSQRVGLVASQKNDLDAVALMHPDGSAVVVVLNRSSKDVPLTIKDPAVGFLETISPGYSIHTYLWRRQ
In words: β-glucocerebrosidase activity enhancement, Wild Type (WT). The note with it: increase in enzyme activity vs non-treated cells; for Activity WT: commercially available compounds. Format: cell-based. As to the method:
Fibroblasts were seeded at 5×10^3 cells per well in 96-well cell culture plates (Corning, N.Y., USA) in Dulbecco's Modified Eagle's Media (DMEM) supplemented with 10% of fetal bovine serum (FBS), 1% penicillin/streptomycin (P/S) (Thermo Fisher Scientific, Waltham, Mass., USA) and grown at 37° C., 5% CO2 overnight for cell attachment. Subsequently, cells were incubated in the absence or presence of the compounds at the desired concentration for 4 days. After incubation, cells were washed twice with phosphate-buffered saline (PBS) and enzyme activity assay was performed.
β-glucocerebrosidase activity in intact cultured cells was measured by using 4-methylumbelliferyl-β-D-glucopyranoside substrate (Apollo Scientific, UK). Briefly, cells were incubated with 4-MU-β-D-glucopyranoside in 0.1 M acetate buffer pH=4 at 37° C. for 1 hour. […] The liberated 4-MU was measured on a GloMax Discover plate reader (Promega, Madison, Wis., USA) with and excitation at 340 nm and emission at 460 nm. Enzyme activities were expressed in treated cells as X-fold increase in comparison with non-treated cells (X=1 represents no enhancement).
The following compounds listed in Table 2 were purchased (from Enamine, Princeton, Asinex, Vistas-M, and OSSK_541352) and tested in the assay as described above.

In test [2] the target is T2, β-glucocerebrosidase, p.L444P mutation (GM08760A fibroblasts) (Homo sapiens, UniProt P04062, L483P).
T2 construct: host or cells: human Gaucher patient fibroblasts GM08760A, homozygous L444P
T2 sequence (P04062 40-536 L483P): T1 sequence (P04062 40-536) with L444P
In words: Enhancement of β-glucocerebrosidase activity measured in Gaucher disease fibroblasts (L444P). Format: cell-based. The note with it: increase in enzyme activity vs non-treated cells, GBA fibroblasts bearing L444P. In a few lines:
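GM08760A fibroblasts (homozygous p.L444P), 5×10^3 cells/well, treated with compound for 4 days at 37° C. Intact cells then incubated with 4-MU-β-D-glucopyranoside in 0.1 M acetate buffer pH=4 for 1 hour at 37° C.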

Where [3] appears, read: concentrations between 6 and 50 μM, 4 days incubation.
The mark [4] stands for this setting: commercially available compounds, 6-50 μM, 4 days.

Residue numbers refer to the chain shown, from its start.

For `COc1ccc(C)cc1Nc1cc(CN(C)Cc2ccccc2)nc(N)n1` [Example 46, 6-((Benzyl(methyl)amino)methyl)-N^4-(2-methoxy-5-methylphenyl)pyrimidine-2,4-diamine], in test [1], the “Activity Wild Type (WT)” value was “B (Increase in comparison with non-treated of >1.7-2.0 fold is shown as B)”. In addition, the “Activity L444P” value in test [2] (setting [3]) is “B (Increase in comparison with non-treated of >1.7-2.0 fold is shown as B)”.
Regarding `Cc1ccc(Nc2nc(N)nc(CN3CCN(Cc4ccc5c(c4)OCO5)CC3)n2)cc1` [6-((4-(benzo[d][1,3]dioxo1-5-ylmethyl)piperazin-1-yl)methyl)-N2-(p-tolyl)-1,3,5-triazine-2,4-diamine], the “Activity WT” value in test [1] is recorded as “B (Increase in comparison with non-treated of >1.7-2.0 fold is shown as B)”. In addition, in test [2] (setting [4]), the “Activity L444P” value was “C (Increase in comparison with non-treated of 1.2-1.7 fold is shown as C)”.
As to `COc1ccc(Nc2nc(N)cc(CN(C)Cc3ccccc3)n2)cc1` [Example 70], the “Activity Wild Type (WT)” value in test [1] is “B (Increase in comparison with non-treated of >1.7-2.0 fold is shown as B)”. The “Activity L444P” value in test [2] (setting [3]) is on record as “A (Increase in comparison with non-treated of >2.0 fold is shown as A)”.
`Cc1ccc(Nc2cc(CN(C)c3ccccc3)nc(N)n2)cc1` [Example 13, 6-((Methyl(phenyl)amino)methyl)-N^4-(p-tolyl)pyrimidine-2,4-diamine]: the “Activity Wild Type (WT)” value in test [1] is listed as “B (Increase in comparison with non-treated of >1.7-2.0 fold is shown as B)”. The “Activity L444P” value in test [2] (setting [3]) is given as “B (Increase in comparison with non-treated of >1.7-2.0 fold is shown as B)”.
On to `COc1cccc(Nc2nc(N)cc(CN(C)Cc3ccccc3)n2)c1` [Example 69, 6-((Benzyl(methyl)amino)methyl)-N^2-(3-methoxyphenyl)pyrimidine-2,4-diamine], for which the “Activity Wild Type (WT)” value in test [1] is “C (Increase in comparison with non-treated of 1.2-1.7 fold is shown as C)”. Moreover, the “Activity L444P” value in test [2] (setting [3]) is on record as “A (Increase in comparison with non-treated of >2.0 fold is shown as A)”.
Regarding `CCN(Cc1ccccc1)Cc1cc(Nc2cccc(OC)c2)nc(N)n1` [Example 48, 6-((Benzyl(ethyl)amino)methyl)-N^4-(3-methoxyphenyl)pyrimidine-2,4-diamine], the “Activity Wild Type (WT)” value in test [1] is listed as “B (Increase in comparison with non-treated of >1.7-2.0 fold is shown as B)”. In addition, in test [2] (setting [3]), the “Activity L444P” value is “C (Increase in comparison with non-treated of 1.2-1.7 fold is shown as C)”.
Consider `CN(Cc1ccccc1)Cc1nc(N)nc(Nc2cccc(Br)c2)n1` [Example 8], for which the “Activity Wild Type (WT)” value in test [1] is recorded as “B (Increase in comparison with non-treated of >1.7-2.0 fold is shown as B)”. Besides, the “Activity L444P” value in test [2] (setting [3]) is listed as “B (Increase in comparison with non-treated of >1.7-2.0 fold is shown as B)”.
For `Cc1ccc(Nc2nc(N)nc(CN(C)c3ccccc3)n2)cc1` [Example 1, 6-((Methyl(phenyl)amino)methyl)-N^2-(p-tolyl)-1,3,5-triazine-2,4-diamine], the “Activity Wild Type (WT)” value in test [1] is “B (Increase in comparison with non-treated of >1.7-2.0 fold is shown as B)”. Also, the “Activity L444P” value in test [2] (setting [3]) is “C (Increase in comparison with non-treated of 1.2-1.7 fold is shown as C)”.
On the same counts, the results for `Cc1cccc(Nc2cc(CN(C)Cc3ccccc3)nc(N)n2)c1` [Example 16] are “A (Increase in comparison with non-treated of >2.0 fold is shown as A)” and “B (Increase in comparison with non-treated of >1.7-2.0 fold is shown as B)”.
For the compound `Cc1ccc(Nc2nc(N)nc(CN3CCc4ccccc4C3)n2)cc1` [6-((3,4-dihydroisoquinolin-2(1H)-yl)methyl)-N2-(p-tolyl)-1,3,5-triazine-2,4-diamine], the “Activity WT” value in test [1] was “B (Increase in comparison with non-treated of >1.7-2.0 fold is shown as B)”. The “Activity L444P” value in test [2] (setting [4]) is “B (Increase in comparison with non-treated of >1.7-2.0 fold is shown as B)”.
Consider `COc1cccc(Nc2cc(CN(C)Cc3ccccc3)nc(N)n2)c1OC` [Example 42, 6-((Benzyl(methyl)amino)methyl)-N^4-(2,3-dimethoxyphenyl)pyrimidine-2,4-diamine], for which, in test [1], the “Activity Wild Type (WT)” value was “B (Increase in comparison with non-treated of >1.7-2.0 fold is shown as B)”. Also, in test [2] (setting [3]), the “Activity L444P” value was “C (Increase in comparison with non-treated of 1.2-1.7 fold is shown as C)”.
Consider `Cc1cccc(Nc2cc(N)nc(CN(C)Cc3ccccc3)n2)c1` [Example 64, 2-((Benzyl(methyl)amino)methyl)-N^4-m-tolylpyrimidine-4,6-diamine], for which, in test [1], the “Activity Wild Type (WT)” value is “B (Increase in comparison with non-treated of >1.7-2.0 fold is shown as B)”. Moreover, in test [2] (setting [3]), the “Activity L444P” value is recorded as “B (Increase in comparison with non-treated of >1.7-2.0 fold is shown as B)”.
As to `COc1cccc(Nc2nc(N)nc(CN(C)c3ccccc3)n2)c1` [Example 3], in test [1], the “Activity Wild Type (WT)” value was “B (Increase in comparison with non-treated of >1.7-2.0 fold is shown as B)”. Moreover, the “Activity L444P” value in test [2] (setting [3]) is reported as “C (Increase in comparison with non-treated of 1.2-1.7 fold is shown as C)”.
On to `Cc1cccc(Nc2nc(N)cc(CN(C)Cc3ccccc3)n2)c1` [Example 68, 6-((Benzyl(methyl)amino)methyl)-N^2-m-tolylpyrimidine-2,4-diamine], for which the “Activity Wild Type (WT)” value in test [1] is “A (Increase in comparison with non-treated of >2.0 fold is shown as A)”. Also, the “Activity L444P” value in test [2] (setting [3]) is “B (Increase in comparison with non-treated of >1.7-2.0 fold is shown as B)”.
Take `Cc1ccc(Nc2nc(N)nc(CN(C)Cc3ccccc3)n2)cc1` [Example 4, 6-((Benzyl(methyl)amino)methyl)-N^2-p-tolyl-1,3,5-trizine-2,4-diamine]: the “Activity Wild Type (WT)” value in test [1] is given as “A (Increase in comparison with non-treated of >2.0 fold is shown as A)”. Also, the “Activity L444P” value in test [2] (setting [3]) is given as “C (Increase in comparison with non-treated of 1.2-1.7 fold is shown as C)”.
As to `COc1ccccc1Nc1nc(N)cc(CN(C)Cc2ccccc2)n1` [Example 67, 6-((Benzyl(methyl)amino)methyl)-N^2-(2-methoxyphenyl) pyrimidine-2,4-diamine], the “Activity Wild Type (WT)” value in test [1] is reported as “B (Increase in comparison with non-treated of >1.7-2.0 fold is shown as B)”. Besides, in test [2] (setting [3]), the “Activity L444P” value is recorded as “A (Increase in comparison with non-treated of >2.0 fold is shown as A)”.
On the same counts, the results for `CN(Cc1ccccc1)Cc1nc(N)nc(Nc2ccc(Br)cc2)n1` [Example 5, 6-((Benzyl(methyl)amino)methyl)-N^2-(4-bromophenyl)-1,3,5-triazine-2,4-diamine] are “C (Increase in comparison with non-treated of 1.2-1.7 fold is shown as C)” and “C (Increase in comparison with non-treated of 1.2-1.7 fold is shown as C)”.
Regarding `Cc1ccccc1Nc1cc(CN(C)Cc2ccccc2)nc(N)n1` [Example 28, 6-((Benzyl(methyl)amino)methyl)-N^4-o-tolylpyrimidine-2,4-diamine], the “Activity Wild Type (WT)” value in test [1] was “B (Increase in comparison with non-treated of >1.7-2.0 fold is shown as B)”. In test [2] (setting [3]), the “Activity L444P” value is on record as “B (Increase in comparison with non-treated of >1.7-2.0 fold is shown as B)”.
For `COc1cccc(Nc2cc(N)nc(CN(C)Cc3ccccc3)n2)c1` [Example 65, 2-((Benzyl(methyl)amino)methyl)-N^4-(3-methoxyphenyl)pyrimidine-4,6-diamine], the “Activity Wild Type (WT)” value in test [1] was “A (Increase in comparison with non-treated of >2.0 fold is shown as A)”. Also, in test [2] (setting [3]), the “Activity L444P” value is “B (Increase in comparison with non-treated of >1.7-2.0 fold is shown as B)”.
